The target of experiment [1] is PTGER4 (EP4) (Homo sapiens (Human), UniProt P35408). Kind of experiment: cell-based.
Experiment [2] addresses EP4 (Homo sapiens (Human), UniProt P35408). Kind of experiment: hEP4 cAMP assay (BT549 breast cancer cells, HTRF cAMP). It is filed as cell-based. The note with it: antagonistic activity, PGE2 6 nM. The procedure, abridged:
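BT549 breast cancer cells (endogenous EP4) in HBSS/20 mM HEPES/0.2% BSA/2 mM IBMX preincubated 45 min at RT with compound, then stimulated 30 min at RT with 6 nM PGE2 (final). cAMP read by competitive HTRF immunoassay, signal inversely proportional to cAMP.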
On the technique in general: cAMP levels reflect the balance of adenylyl cyclase and phosphodiesterase activity.

The target in experiment [3] is PTGER2 (EP2) (Homo sapiens (Human), UniProt P43116). The experiment is described as follows: hEP2 b-arrestin assay (PathHunter HEK 293 PTGER2 b-arrestin cells). Conditions: antagonistic activity, beta-arrestin assay; read-out: hEP2 b-arr IC50. It is filed as cell-based. The procedure:
Plate is pre-incubated 15 minutes at 37° C. Then five microliters of PGE2 (final conc. 5 μM) are transferred into the assay plate. Plate is incubated 120 minutes at 37° C.
(each concentration is measured in duplicate)

Experiment [4] has as its target EP2 (Homo sapiens (Human), UniProt P43116). Kind of experiment: hEP2 cAMP assay (SF295 glioblastoma cells, HTRF cAMP). Conditions: antagonistic activity. The class given is cell-based. In a few lines:
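PGE2-driven cAMP accumulation was measured by HTRF in SF295 cells, which express endogenous EP2 only. Cells in assay buffer with 2 mM IBMX were pre-incubated 45 min at RT, then incubated 30 min at RT. Detection used competition between cellular cAMP and d2-cAMP for a cryptate anti-cAMP antibody.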

Molecules are shown by their SMILES.

Sequence of PTGER4 (EP4) (P35408 whole entry): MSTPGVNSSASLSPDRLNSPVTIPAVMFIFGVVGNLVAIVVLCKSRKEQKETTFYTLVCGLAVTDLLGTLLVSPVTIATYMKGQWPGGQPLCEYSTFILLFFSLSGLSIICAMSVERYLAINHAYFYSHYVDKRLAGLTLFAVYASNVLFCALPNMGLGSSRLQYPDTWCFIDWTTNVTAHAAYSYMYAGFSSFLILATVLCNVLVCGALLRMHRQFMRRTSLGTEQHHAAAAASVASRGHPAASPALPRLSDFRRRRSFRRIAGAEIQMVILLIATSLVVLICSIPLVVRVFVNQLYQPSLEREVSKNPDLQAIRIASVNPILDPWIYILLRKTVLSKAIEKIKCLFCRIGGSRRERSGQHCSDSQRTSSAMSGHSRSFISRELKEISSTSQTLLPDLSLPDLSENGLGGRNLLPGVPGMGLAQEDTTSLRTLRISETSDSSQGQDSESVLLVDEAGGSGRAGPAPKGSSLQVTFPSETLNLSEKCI
Sequence of EP4 (P35408 whole entry): as above
Sequence of PTGER2 (EP2) (P43116 whole entry): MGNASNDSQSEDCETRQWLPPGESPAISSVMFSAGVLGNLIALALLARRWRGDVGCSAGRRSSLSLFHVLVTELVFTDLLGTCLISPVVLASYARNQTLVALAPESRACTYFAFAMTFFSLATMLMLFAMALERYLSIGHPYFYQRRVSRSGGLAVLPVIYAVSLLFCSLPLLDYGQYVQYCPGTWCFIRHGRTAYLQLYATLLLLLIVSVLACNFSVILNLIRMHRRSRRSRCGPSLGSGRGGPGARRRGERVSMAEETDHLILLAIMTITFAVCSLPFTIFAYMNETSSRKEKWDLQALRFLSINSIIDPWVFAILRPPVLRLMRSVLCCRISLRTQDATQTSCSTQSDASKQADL
Sequence of EP2 (P43116 whole entry): as above

A word on the IC50: it is the concentration needed to halve the response being measured. With `CCOc1cc(-c2cc(NCCc3cc4c(cc3OC)OCO4)ncn2)ccc1CC(=O)O` [Ex 299], the IC50 in experiment [1] stood at 367 nM; in experiment [2], 444 nM; in experiment [3], 307 nM; in experiment [4] it was 250 nM.

`CSc1cc(-c2cc(NCCc3ccc4cc[nH]c4c3)ncn2)ccc1C(=O)O` [Ex 328, 4-{6-[2-(1H-Indol-6-yl)-ethylamino]-pyrimidin-4-yl}-2-methylsulfanyl-benzoic acid]: the IC50 in experiment [1] was determined as 919 nM; in experiment [2] it was 938 nM; in experiment [3], 287 nM; in experiment [4], 108 nM.

For `CCOc1cc(-c2cc(NCCc3ccc4ccccc4c3C)ncn2)ccc1-c1nnn[nH]1` [Ex 156], the IC50 in experiment [1] is 36 nM; in experiment [2], 154 nM; in experiment [3], 107 nM; in experiment [4] it was 221 nM.

Consider `CCCCOc1cc(-c2cc(NCCc3ccc4ccccc4c3C)ncn2)ccc1C(=O)O` [Ex 169, 2-Butoxy-4-{6-[2-(1-methyl-naphthalen-2-yl)-ethylamino]-pyrimidin-4-yl}-benzoic acid], for which the IC50 in experiment [1] came out at 269 nM; in experiment [2], 168 nM; in experiment [3] it was 141 nM; in experiment [4], 125 nM.

With `CCOc1cc(-c2cc(NCCc3ccc4scc(C)c4c3)ncn2)ccc1C(=O)O` [Example 465, 2-Ethoxy-4-{6-[2-(3-methyl-benzo[b]thiophen-5-yl)-ethylamino]-pyrimidin-4-yl}-benzoic acid], the IC50 amounted to 827 nM in experiment [1], 1400 nM in experiment [2] (BT549 cells), 313 nM in experiment [3] and 245 nM in experiment [4].

Turning to `CCOc1cc(-c2cc(NCCc3ccc4scc(C)c4c3)ncn2)sc1C(=O)O` [Ex 47, 3-Ethoxy-5-{6-[2-(3-methyl-benzo[b]thiophen-5-yl)-ethylamino]-pyrimidin-4-yl}-thiophene-2-carboxylic acid], the IC50 in experiment [1] is 85 nM; in experiment [2] it was 22 nM; in experiment [3], 45 nM; in experiment [4] it was 91 nM.

On to `CCOc1cc(-c2cc(NCCc3cc4c(cc3SC)OCCO4)ncn2)sc1C(=O)O` [Ex 78, 3-Ethoxy-5-{6-[2-(7-methylsulfanyl-2,3-dihydro-benzo[1,4]dioxin-6-yl)-ethylamino]-pyrimidin-4-yl}-thiophene-2-carboxylic acid], for which the IC50 was determined as 21 nM in experiment [1], 44 nM in experiment [2], 141 nM in experiment [3] and 219 nM in experiment [4].

Take `CCOc1cc(-c2cc(NCCc3ccc4ccn(C)c4c3)ncn2)sc1C(=O)O` [Ex 42, 3-Ethoxy-5-{6-[2-(1-methyl-1H-indol-6-yl)-ethylamino]-pyrimidin-4-yl}-thiophene-2-carboxylic acid]: the IC50 came out at 25 nM in experiment [1], 21 nM in experiment [2], 240 nM in experiment [3] and 137 nM in experiment [4].

In the case of `COc1cc2c(cc1CCNc1cc(-c3ccc4c(C(=O)O)c[nH]c4c3)ncn1)OCCO2` [Ex 323], the IC50 amounted to 1900 nM in experiment [1], 835 nM in experiment [2], 438 nM in experiment [3] and 114 nM in experiment [4].

Regarding `CCOc1cc(-c2cc(NCCc3ccc4sccc4c3)ncn2)ccc1C(=O)O` [Ex 155, 4-[6-(2-Benzo[b]thiophen-5-yl-ethylamino)-pyrimidin-4-yl]-2-ethoxy-benzoic acid], the IC50 came out at 301 nM in experiment [1], 151 nM in experiment [2], 232 nM in experiment [3] and 161 nM in experiment [4].

In the case of `O=C(O)c1ccc(-c2cc(NCCc3cc4ccoc4cc3F)ncn2)cc1OC1CCC1` [Ex 200], the IC50 in experiment [1] worked out at 510 nM; in experiment [2] it was 227 nM; in experiment [3], 57 nM; in experiment [4], 108 nM.

Take `CCCc1cc(-c2cc(NCCc3cc(F)c4sccc4c3)ncn2)ccc1CC(=O)O` [Example 390, (4-{6-[2-(7-Fluoro-benzo[b]thiophen-5-yl)-ethylamino]-pyrimidin-4-yl}-2-propyl-phenyl)-acetic acid]: the half-inhibitory concentration (IC50) amounted to 29 nM in experiment [1], 32 nM in experiment [2], 264 nM in experiment [3] and 590 nM in experiment [4].

Consider `CCOc1cc(-c2cc(NCCc3cc4ccsc4cc3C)ncn2)sc1C(=O)O` [Ex 34, 3-Ethoxy-5-{6-[2-(6-methyl-benzo[b]thiophen-5-yl)-ethylamino]-pyrimidin-4-yl}-thiophene-2-carboxylic acid], for which the IC50 in experiment [1] came to 25 nM; in experiment [2] it was 18 nM; in experiment [3], 6 nM; in experiment [4], 8 nM.

As for `CCSc1cc(-c2cc(NCCc3cc4ccoc4cc3OC)ncn2)ccc1C(=O)O` [Ex 158, 2-Ethylsulfanyl-4-{6-[2-(6-methoxy-benzofuran-5-yl)-ethylamino]-pyrimidin-4-yl}-benzoic acid], the IC50 in experiment [1] is 185 nM; in experiment [2], 157 nM; in experiment [3], 23 nM; in experiment [4], 16 nM.

In the case of `CCOc1cc(-c2cc(NCCc3c(F)c(F)c4cc(C)oc4c3OC)ncn2)ccc1C(=O)O` [Ex 215], the IC50 amounted to 379 nM in experiment [1], 259 nM in experiment [2], 1590 nM in experiment [3] and 650 nM in experiment [4].

With `CCOc1cc(-c2cc(NCCc3ccc4ccccc4c3C)ncn2)ccc1NCC(=O)O` [Ex 205], the IC50 in experiment [1] amounted to 47 nM; in experiment [2], 244 nM; in experiment [3] it was 118 nM; in experiment [4], 190 nM.

As for `CCOc1cc(-c2cc(NCCc3ccc4c(c3)OCCO4)ncn2)sc1C(=O)O` [Ex 41, 5-{6-[2-(2,3-Dihydro-benzo[1,4]dioxin-6-yl)-ethylamino]-pyrimidin-4-yl}-3-ethoxy-thiophene-2-carboxylic acid], the IC50 in experiment [1] was 30 nM; in experiment [2], 21 nM; in experiment [3] it was 405 nM; in experiment [4], 164 nM.

As to `CCOc1cc(-c2cc(NCCc3c(OCC)cc4ccccc4c3C)ncn2)ccc1CC(=O)O` [Example 420, (2-Ethoxy-4-{6-[2-(3-ethoxy-1-methyl-naphthalen-2-yl)-ethylamino]-pyrimidin-4-yl}-phenyl)-acetic acid], the IC50 turned out to be 30 nM in experiment [1], 119 nM in experiment [2] (BT549 cells), 27 nM in experiment [3] and 257 nM in experiment [4].

As for `CSc1cc(-c2cc(NCCc3ccc4sccc4c3)ncn2)ccc1C(=O)O` [Ex 132, 4-[6-(2-Benzo[b]thiophen-5-yl-ethylamino)-pyrimidin-4-yl]-2-methylsulfanyl-benzoic acid], the IC50 was determined as 161 nM in experiment [1], 107 nM in experiment [2], 82 nM in experiment [3] and 66 nM in experiment [4].

Regarding `Cc1c(CCNc2cc(-c3ccc(C(=O)O)c(CC(C)C)c3)ncn2)ccc2ccccc12` [Ex 76, 2-Isobutyl-4-{6-[2-(1-methyl-naphthalen-2-yl)-ethylamino]-pyrimidin-4-yl}-benzoic acid], the IC50 in experiment [1] was found to be 120 nM; in experiment [2] it was 42 nM; in experiment [3], 360 nM; in experiment [4] it was 221 nM.

With `COc1cc2occc2c(C)c1CCNc1cc(-c2ccc(C(=O)O)c(OC3CCC3)c2)ncn1` [Ex 208, 2-Cyclobutoxy-4-{6-[2-(6-methoxy-4-methyl-benzofuran-5-yl)-ethylamino]-pyrimidin-4-yl}-benzoic acid], the IC50 came to 130 nM in experiment [1], 248 nM in experiment [2], 8 nM in experiment [3] and 5 nM in experiment [4].

On to `CCOc1cc(-c2cc(NCCc3ccc4ccccc4c3C)ncn2)sc1C(=O)O` [Example 7, 3-Ethoxy-5-{6-[2-(1-methyl-naphthalen-2-yl)-ethylamino]-pyrimidin-4-yl}-thiophene-2-carboxylic acid], for which the IC50 in experiment [1] worked out at 14 nM; in experiment [2], 5 nM; in experiment [3], 21 nM; in experiment [4] it was 12 nM.

Take `CCOc1cc2c(cc1CCNc1cc(-c3cc(OCC)c(C(=O)O)s3)ncn1)OCCO2` [Ex 39, 3-Ethoxy-5-{6-[2-(7-ethoxy-2,3-dihydro-benzo[1,4]dioxin-6-yl)-ethylamino]-pyrimidin-4-yl}-thiophene-2-carboxylic acid]: the IC50 in experiment [1] is 14 nM; in experiment [2] it was 19 nM; in experiment [3], 4 nM; in experiment [4] it was 2 nM.

As for `CCOc1cc2c(cc1CCNc1cc(-c3ccc(CC(=O)O)c(OCC)c3)ncn1)OCCO2` [Ex 192, (2-Ethoxy-4-{6-[2-(7-ethoxy-2,3-dihydro-benzo[1,4]dioxin-6-yl)-ethylamino]-pyrimidin-4-yl}-phenyl)-acetic acid], the IC50 was found to be 153 nM in experiment [1], 210 nM in experiment [2], 76 nM in experiment [3] and 69 nM in experiment [4].

Turning to `CCOc1cc(-c2cc(NCCc3ccc4sccc4c3)ncn2)sc1C(=O)O` [Ex 5, 5-[6-(2-Benzo[b]thiophen-5-yl-ethylamino)-pyrimidin-4-yl]-3-ethoxy-thiophene-2-carboxylic acid], the IC50 in experiment [1] was found to be 5 nM; in experiment [2], 3 nM; in experiment [3], 39 nM; in experiment [4] it was 28 nM.

With `CCOc1cc2ccccc2c(C)c1CCNc1cc(-c2ccc(C(=O)O)c(SC)c2)ncn1` [Example 419, 4-{6-[2-(3-Ethoxy-1-methyl-naphthalen-2-yl)-ethylamino]-pyrimidin-4-yl}-2-methylsulfanyl-benzoic acid], the half-inhibitory concentration (IC50) in experiment [1] worked out at 30 nM; in experiment [2] (BT549 cells), 85 nM; in experiment [3], 3 nM; in experiment [4], 29 nM.

For the origin of these results see patent US11839613B2, “Pyrimidine derivatives as PGE2 receptor modulators” (IDORSIA PHARMACEUTICALS LTD, priority 2017, dated 2023).
